The source made the active and inactive calls.
Key:
[1] = test system: H9c2; assay: cells; assay type: functional, cell-based; conditions: Rattus norvegicus, H9c2, Myocardium;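 also: confirmatory concentration-response retest of ultra-high-throughput screening hits for modulation of myocardial damage; cell death induced by hydrogen peroxide oxidative stress; compound pretreatment for 60 min then peroxide exposure for 2 h; potency is for protecting the cells against peroxide damage rather than for killing them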
[2] = target: T1, Orexin/Hypocretin receptor type 1 (Homo sapiens, UniProt O43613); assay: Homogeneous Time Resolved Fluorescence (HTRF)-based cell-based high throughput dose response assay for antagonists of the orexin 1 receptor (OX1R; HCRTR1). [Related pubchem assays (depositor defined):AID434989, AID435008, AID463079, AID485270, AID492963, AID492964, AID492965, AID493232, AID504717, AID504718]; assay type: functional
T1 sequence (O43613 whole entry): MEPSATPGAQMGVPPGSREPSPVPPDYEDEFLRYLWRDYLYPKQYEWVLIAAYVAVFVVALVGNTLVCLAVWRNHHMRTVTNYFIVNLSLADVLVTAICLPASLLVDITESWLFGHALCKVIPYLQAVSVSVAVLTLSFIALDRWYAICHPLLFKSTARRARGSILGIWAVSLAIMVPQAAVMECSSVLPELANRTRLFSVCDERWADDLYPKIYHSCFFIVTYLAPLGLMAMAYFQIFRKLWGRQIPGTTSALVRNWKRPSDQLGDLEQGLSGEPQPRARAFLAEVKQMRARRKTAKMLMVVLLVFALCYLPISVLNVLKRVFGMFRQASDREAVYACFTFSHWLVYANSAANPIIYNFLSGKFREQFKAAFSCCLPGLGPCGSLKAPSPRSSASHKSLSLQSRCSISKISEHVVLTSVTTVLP

[3] = target: T2, Orexin receptor type 2 (Homo sapiens, UniProt O43614); assay: Counterscreen assay for antagonists of the orexin 1 receptor (OX1R; HCRTR1): Fluorescence-based cell-based dose response assay for antagonists of the orexin 2 receptor (OX2R; HCRTR2), run by assay provider.; assay type: functional
T2 sequence (O43614 whole entry): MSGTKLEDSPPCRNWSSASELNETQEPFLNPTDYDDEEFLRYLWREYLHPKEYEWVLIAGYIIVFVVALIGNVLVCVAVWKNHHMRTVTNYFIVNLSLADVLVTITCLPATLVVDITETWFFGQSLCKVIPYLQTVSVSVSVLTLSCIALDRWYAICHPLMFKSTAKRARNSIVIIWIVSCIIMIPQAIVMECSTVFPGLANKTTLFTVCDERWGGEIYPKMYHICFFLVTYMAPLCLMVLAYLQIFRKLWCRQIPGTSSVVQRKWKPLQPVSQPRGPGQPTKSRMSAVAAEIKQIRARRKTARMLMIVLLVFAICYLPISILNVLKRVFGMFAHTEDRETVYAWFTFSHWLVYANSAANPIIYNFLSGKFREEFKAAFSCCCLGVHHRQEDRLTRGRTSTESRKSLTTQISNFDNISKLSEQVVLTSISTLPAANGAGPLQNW

[4] = target: T2, Orexin receptor type 2; assay: Counterscreen assay for antagonists of the orexin 1 receptor (OX1R; HCRTR1): Homogeneous Time Resolved Fluorescence (HTRF)-based cell-based dose response assay for antagonists of the orexin 2 receptor (OX2R; HCRTR2), run by assay provider.; assay type: functional
[5] = (§1) Counterscreen for antagonists of the orexin 1 receptor (OX1R; HCRTR1): Fluorescence-based cell-based high throughput dose response assay to identify antagonists of the parental CHO cell line. [Related pubchem assays (depositor defined):AID434989, AID435008, AID463079, AID485270, AID492963, AID492964, AID492965, AID493232, AID504699, AID504701]; assay type: functional
[6] = viability of uninfected HEp-2 cells – cell-based, HTS, cytotoxicity control for RSV inhibitor project, dose response (AID 2410); assay type: functional; conditions: human respiratory syncytial virus
[7] = target: T1, Orexin/Hypocretin receptor type 1; assay: Fluorescence-based cell-based high throughput dose response assay for antagonists of the orexin 1 receptor (OX1R; HCRTR1). [Related pubchem assays (depositor defined):AID434989, AID435008, AID463079, AID485270, AID492963, AID492964, AID492965, AID493232, AID504717, AID504718]; assay type: functional
[8] = test system: CHO-K1; assay: as §1, with “Homogeneous time resolved fluorescence (HTRF)-based” for “Fluorescence-based”, “cell-based” for “cell-based high throughput”, “CHO-K1” for “CHO”; assay type: functional; conditions: Cricetulus griseus;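 also: potency for inhibition of ATP-stimulated IP1 production as antagonists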
[9] = test system: Candida albicans; assay: antifungal activity against resistant Candida strain – CaCi-8, fluconazole, Alamar Blue, dry powder, dose response (AID 488807); assay type: functional, organism-based
[10] = test system: NIH3T3; assay: mammalian cell viability counter-check – Alamar Blue, fluconazole, dry powder, cytotoxicity control for antifungal drug resistance project, dose response (AID 488809); assay type: functional, cell-based; conditions: Mus musculus
[11] = test system: Candida albicans; assay: Candida growth effect without fluconazole – C. albicans CaCi-2, dry powder, counter-screen for antifungal drug resistance project, dose response (AID 488802); assay type: functional, organism-based
[12] = target: Cyclin-dependent kinase 5/CDK5 activator 1 (Homo sapiens, UniProt Q00535); assay: human CDK5 activity blockade – biochemical, microfluidic mobility shift, dry powder, selectivity assay for GSK-3 alpha inhibitor project, dose response (AID 588430)
Cyclin-dependent kinase 5/CDK5 activator 1, sequence (Q00535 whole entry): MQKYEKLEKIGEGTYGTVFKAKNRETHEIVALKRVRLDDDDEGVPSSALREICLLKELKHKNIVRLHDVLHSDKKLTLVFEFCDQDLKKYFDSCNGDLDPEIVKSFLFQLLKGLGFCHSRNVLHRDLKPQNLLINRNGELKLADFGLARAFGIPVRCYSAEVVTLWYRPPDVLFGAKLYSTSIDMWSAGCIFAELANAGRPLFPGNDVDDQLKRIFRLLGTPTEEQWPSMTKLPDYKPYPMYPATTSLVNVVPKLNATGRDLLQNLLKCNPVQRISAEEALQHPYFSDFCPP
Cyclin-dependent kinase 5/CDK5 activator 1, sequence (Q15078 whole entry, further chain): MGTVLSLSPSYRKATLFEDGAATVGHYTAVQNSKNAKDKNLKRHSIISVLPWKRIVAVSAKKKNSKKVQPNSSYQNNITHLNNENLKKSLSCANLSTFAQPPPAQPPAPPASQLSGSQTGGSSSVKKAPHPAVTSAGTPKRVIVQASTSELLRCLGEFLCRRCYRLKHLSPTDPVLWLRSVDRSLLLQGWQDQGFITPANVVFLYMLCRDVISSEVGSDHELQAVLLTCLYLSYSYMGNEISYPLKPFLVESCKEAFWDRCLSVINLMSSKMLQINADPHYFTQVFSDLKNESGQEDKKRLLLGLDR

[13] = target: Glycogen synthase kinase-3 beta (Homo sapiens, UniProt P49841); assay: Inhibition of Human GSK-3 beta Activity Measured in Biochemical System Using Microfluidics - 2063-05_Inhibitor_Dose_DryPowder_Activity_Set2. [Related pubchem assays (depositor defined):AID2709]
Glycogen synthase kinase-3 beta, sequence (P49841 whole entry): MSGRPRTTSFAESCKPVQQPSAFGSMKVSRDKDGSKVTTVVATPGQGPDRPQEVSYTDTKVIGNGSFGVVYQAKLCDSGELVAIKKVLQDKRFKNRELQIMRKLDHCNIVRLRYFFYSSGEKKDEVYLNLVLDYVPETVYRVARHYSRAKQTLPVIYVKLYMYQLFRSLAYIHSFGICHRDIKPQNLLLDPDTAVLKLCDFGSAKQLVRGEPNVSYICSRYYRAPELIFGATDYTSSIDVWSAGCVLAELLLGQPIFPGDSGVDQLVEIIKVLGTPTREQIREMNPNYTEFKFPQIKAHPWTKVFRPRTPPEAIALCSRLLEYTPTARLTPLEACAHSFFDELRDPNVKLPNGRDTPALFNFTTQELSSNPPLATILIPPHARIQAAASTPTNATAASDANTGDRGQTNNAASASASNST

[14] = target: Glycogen synthase kinase-3 alpha (Homo sapiens, UniProt P49840); assay: Inhibition of Human GSK-3 alpha Activity Measured in Biochemical System Using Microfluidics - 2063-06_Inhibitor_Dose_DryPowder_Activity_Set2. [Related pubchem assays (depositor defined):AID2709]
Glycogen synthase kinase-3 alpha, sequence (P49840 whole entry): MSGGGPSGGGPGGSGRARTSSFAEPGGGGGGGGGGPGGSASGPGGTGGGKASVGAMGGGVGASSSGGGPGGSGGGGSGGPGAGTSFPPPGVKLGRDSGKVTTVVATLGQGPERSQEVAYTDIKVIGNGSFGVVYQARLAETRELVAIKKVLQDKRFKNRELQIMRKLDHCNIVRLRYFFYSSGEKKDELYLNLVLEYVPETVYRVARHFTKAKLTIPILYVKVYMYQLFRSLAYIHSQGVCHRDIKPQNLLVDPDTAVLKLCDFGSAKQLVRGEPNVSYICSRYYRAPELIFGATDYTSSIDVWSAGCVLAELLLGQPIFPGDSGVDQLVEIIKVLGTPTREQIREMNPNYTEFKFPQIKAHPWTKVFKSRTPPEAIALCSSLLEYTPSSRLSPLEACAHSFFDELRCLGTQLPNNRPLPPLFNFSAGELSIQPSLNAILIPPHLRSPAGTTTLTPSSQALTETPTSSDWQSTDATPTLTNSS

[15] = target: T3, Sentrin-specific protease 8 (Homo sapiens, UniProt Q96LD8); assay: inhibition of human SENP8 cleavage activity – biochemical, luminescence, SAR follow-up (AID 504501); assay type: functional
T3 sequence (Q96LD8 whole entry): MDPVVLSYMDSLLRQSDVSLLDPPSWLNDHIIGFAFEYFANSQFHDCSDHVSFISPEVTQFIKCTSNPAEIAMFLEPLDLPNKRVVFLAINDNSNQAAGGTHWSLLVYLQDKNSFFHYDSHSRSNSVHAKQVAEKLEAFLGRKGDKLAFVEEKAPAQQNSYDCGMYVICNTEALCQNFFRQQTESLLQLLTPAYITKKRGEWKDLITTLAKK

[16] = target: T4, Sentrin-specific protease 6 (Homo sapiens, UniProt Q9GZR1); assay: SAR Analysis of small molecule inhibitors of Sentrin-specific protease 6 (SENP6) using a Luminescent assay. [Related pubchem assays (depositor defined):AID2582, AID2599]; assay type: functional
T4 sequence (Q9GZR1 whole entry): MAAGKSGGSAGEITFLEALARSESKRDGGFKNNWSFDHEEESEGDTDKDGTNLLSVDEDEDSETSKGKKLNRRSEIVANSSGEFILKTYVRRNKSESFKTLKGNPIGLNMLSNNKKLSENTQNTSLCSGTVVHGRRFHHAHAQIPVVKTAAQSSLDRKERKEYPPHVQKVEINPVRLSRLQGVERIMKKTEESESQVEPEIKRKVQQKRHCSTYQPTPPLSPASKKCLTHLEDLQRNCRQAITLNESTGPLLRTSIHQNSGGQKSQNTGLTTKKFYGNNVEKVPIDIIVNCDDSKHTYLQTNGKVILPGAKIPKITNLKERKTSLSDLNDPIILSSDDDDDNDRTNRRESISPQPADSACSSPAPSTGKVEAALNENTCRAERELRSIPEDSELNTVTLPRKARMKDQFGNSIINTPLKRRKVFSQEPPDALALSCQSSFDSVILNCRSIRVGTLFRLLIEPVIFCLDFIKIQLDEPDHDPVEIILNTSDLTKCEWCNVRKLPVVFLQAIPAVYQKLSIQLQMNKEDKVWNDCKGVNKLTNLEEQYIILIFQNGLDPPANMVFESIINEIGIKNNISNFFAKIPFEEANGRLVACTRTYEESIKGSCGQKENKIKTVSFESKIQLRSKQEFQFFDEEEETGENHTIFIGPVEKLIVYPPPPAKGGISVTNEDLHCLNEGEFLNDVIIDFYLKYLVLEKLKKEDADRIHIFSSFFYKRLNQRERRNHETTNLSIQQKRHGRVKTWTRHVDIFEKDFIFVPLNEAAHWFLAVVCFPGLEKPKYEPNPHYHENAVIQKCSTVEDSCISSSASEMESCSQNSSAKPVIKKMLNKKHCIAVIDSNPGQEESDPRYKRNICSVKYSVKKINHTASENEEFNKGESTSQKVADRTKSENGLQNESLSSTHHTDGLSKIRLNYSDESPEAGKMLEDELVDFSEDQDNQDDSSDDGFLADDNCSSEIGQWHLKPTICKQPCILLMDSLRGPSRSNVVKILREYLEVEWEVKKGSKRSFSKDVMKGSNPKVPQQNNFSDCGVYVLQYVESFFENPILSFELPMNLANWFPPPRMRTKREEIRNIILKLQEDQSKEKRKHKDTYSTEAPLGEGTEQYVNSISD

[17] = target: T5, Caspase-3 (Homo sapiens, UniProt P42574); assay: SAR Analysis of small molecule inhibitors of Sentrin-specific proteases (SENPs) using a Caspase-3 Selectivity assay. [Related pubchem assays (depositor defined):AID2540, AID2599, AID434973, AID489001]; assay type: functional
T5 sequence (P42574 whole entry): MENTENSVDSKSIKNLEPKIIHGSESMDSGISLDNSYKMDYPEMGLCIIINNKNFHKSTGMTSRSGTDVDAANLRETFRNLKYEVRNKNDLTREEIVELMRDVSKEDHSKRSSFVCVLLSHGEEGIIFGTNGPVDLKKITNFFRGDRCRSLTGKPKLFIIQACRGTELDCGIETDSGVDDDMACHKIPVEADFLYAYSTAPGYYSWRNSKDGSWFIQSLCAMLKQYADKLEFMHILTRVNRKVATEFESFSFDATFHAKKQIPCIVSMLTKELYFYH

[18] = target: T6, Sentrin-specific protease 7 (Homo sapiens, UniProt Q9BQF6); assay: inhibition of human SENP7 cleavage activity – biochemical, luminescence, SAR follow-up (AID 504497); assay type: functional
T6 sequence (Q9BQF6 whole entry): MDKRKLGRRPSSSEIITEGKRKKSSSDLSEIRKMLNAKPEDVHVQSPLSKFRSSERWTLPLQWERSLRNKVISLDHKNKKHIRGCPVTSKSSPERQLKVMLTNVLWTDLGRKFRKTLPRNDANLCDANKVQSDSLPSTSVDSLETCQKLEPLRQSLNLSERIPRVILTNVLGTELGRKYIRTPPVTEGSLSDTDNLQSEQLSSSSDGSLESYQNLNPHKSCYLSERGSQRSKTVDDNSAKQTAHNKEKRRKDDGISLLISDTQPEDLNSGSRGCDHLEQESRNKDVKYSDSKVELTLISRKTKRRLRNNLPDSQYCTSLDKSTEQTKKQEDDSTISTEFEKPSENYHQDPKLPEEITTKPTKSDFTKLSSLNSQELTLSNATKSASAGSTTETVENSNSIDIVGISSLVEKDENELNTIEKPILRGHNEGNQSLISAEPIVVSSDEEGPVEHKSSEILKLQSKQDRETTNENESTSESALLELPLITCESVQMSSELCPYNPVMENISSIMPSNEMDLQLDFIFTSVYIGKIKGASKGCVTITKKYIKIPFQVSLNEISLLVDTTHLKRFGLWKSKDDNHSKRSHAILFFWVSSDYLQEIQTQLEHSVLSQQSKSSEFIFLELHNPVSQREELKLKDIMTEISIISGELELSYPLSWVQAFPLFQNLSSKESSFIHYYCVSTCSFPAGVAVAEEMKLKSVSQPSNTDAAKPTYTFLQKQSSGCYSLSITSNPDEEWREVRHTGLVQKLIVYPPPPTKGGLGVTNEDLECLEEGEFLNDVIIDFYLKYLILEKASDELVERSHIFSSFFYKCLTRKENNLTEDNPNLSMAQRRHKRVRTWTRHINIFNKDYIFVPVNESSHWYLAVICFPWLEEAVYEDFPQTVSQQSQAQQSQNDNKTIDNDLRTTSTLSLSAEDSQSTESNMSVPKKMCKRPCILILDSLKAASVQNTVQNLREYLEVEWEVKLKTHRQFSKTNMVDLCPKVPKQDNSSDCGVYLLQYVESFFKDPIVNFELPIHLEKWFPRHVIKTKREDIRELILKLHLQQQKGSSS

[19] = target: T7, Neuropeptides B/W receptor type 1 (Homo sapiens, UniProt P48145); assay: human NPBW1 receptor blockade, IC50 – cell-based, fluorescence, dose response, set 5, late-stage follow-up (AID 588566); assay type: functional
T7 sequence (P48145 whole entry): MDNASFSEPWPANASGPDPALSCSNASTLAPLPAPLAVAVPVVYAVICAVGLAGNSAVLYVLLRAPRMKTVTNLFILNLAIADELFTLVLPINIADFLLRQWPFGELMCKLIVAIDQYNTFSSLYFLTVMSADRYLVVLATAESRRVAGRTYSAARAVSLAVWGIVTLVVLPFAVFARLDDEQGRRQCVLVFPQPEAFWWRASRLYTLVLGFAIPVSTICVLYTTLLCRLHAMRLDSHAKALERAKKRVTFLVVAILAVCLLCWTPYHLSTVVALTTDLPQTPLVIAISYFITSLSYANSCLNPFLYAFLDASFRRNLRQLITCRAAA

[20] = target: Melanin-concentrating hormone receptor 1 (Homo sapiens, UniProt Q99705); assay: Late-stage fluorescence-based counterscreen for antagonists of the G-protein coupled receptor 7 (GPR7): cell-based dose response assay to identify antagonists of the melanin-concentrating hormone receptor 1 (MCHR1) Set 5.; assay type: functional
Melanin-concentrating hormone receptor 1, sequence (Q99705 whole entry): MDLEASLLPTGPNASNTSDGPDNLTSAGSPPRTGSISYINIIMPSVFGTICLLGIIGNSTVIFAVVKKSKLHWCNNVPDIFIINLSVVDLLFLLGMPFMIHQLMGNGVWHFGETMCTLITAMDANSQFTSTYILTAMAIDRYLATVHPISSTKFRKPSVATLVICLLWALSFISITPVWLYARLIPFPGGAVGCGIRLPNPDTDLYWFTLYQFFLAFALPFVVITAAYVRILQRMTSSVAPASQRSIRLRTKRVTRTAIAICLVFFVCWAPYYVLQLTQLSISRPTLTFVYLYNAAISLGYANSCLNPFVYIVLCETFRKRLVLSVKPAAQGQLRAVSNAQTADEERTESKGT

[21] = Vero cell cytotoxicity, cytotoxicity control for M. tuberculosis inhibitor project, purified and synthesized samples, set 3 (AID 504684); assay type: functional
[22] = THP-1 cell cytotoxicity, dose response, cytotoxicity control, set 3 (AID 504852); assay type: functional; conditions: Mycobacterium tuberculosis
[23] = Vero cell cytotoxicity, dose response, cytotoxicity control for M. tuberculosis growth inhibitor project, Vero cells, purified and synthesized compounds, set 5 (AID 504909); assay type: functional; conditions: Mycobacterium tuberculosis
[24] = Vero cell cytotoxicity, dose response, cytotoxicity control for M. tuberculosis growth inhibitor project, Vero cells, purified and synthesized compounds, set 4 (AID 504854); assay type: functional; conditions: Mycobacterium tuberculosis
[25] = THP-1 cell cytotoxicity, cytotoxicity control, set 4 (AID 504911); assay type: functional; conditions: Mycobacterium tuberculosis
[26] = A Cell Based Secondary Assay to Explore Cytotoxicity in THP-1 Cells of Compounds that Modulate Mycobacterium tuberculosis in Media Containing Glycerol versus Media without Glycerol (2).; assay type: functional
[27] = target: Cytochrome P450 2C9 (Homo sapiens, UniProt P11712)
Cytochrome P450 2C9, sequence (P11712 whole entry): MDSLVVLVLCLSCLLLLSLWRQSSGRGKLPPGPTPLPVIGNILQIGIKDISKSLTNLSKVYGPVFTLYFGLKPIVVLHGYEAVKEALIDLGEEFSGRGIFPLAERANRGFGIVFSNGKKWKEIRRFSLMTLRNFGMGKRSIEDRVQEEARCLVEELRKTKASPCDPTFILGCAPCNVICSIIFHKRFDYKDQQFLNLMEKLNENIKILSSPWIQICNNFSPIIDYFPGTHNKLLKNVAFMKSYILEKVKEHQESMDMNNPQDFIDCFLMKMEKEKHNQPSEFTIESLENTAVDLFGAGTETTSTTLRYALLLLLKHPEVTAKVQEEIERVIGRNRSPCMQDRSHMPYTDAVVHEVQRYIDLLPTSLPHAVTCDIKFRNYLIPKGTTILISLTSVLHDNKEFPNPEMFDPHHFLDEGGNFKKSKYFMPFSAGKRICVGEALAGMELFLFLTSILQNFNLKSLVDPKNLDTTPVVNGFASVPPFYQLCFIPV

[28] = target: Cyclin-dependent kinase 9 (Homo sapiens, UniProt P50750); assay type: functional;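 also: value from the CDK9 entry of a kinome-spanning kinase panel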
Cyclin-dependent kinase 9, sequence (P50750 whole entry): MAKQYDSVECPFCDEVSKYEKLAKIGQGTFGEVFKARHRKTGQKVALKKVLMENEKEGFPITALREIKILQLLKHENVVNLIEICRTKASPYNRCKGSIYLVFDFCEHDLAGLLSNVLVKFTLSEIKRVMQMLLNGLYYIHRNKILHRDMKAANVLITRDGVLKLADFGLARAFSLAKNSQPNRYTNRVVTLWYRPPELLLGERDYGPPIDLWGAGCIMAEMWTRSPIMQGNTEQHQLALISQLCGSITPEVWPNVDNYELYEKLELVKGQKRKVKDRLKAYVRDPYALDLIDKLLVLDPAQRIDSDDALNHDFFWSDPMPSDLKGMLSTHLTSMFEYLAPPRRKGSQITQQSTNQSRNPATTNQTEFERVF

[29] = target: Cyclin-dependent kinase 8 (Homo sapiens, UniProt P49336); assay: Navigating the Kinome. Panel member name: CDK8; assay type: functional
Cyclin-dependent kinase 8, sequence (P49336 whole entry): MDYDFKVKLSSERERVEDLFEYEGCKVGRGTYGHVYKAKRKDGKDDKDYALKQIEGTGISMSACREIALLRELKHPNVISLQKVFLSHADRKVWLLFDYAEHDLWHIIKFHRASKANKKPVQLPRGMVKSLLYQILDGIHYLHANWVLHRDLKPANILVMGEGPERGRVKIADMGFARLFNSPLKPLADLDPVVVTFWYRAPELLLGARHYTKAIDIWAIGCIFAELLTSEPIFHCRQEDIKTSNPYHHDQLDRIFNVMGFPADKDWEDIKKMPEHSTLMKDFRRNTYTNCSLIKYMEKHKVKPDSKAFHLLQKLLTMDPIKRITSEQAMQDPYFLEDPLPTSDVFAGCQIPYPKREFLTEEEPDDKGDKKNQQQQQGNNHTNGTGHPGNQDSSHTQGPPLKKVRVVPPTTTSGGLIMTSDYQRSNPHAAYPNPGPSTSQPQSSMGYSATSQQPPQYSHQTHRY

Cc1[nH]c2ccccc2c1C(=O)CSc1nc2ccccc2[nH]1
IC50 [1]: 32 µM (inactive)
IC50 [2]: 3.42 µM (active)
IC50 [3]: > 88.8 µM (inactive)
IC50 [4]: > 50 µM (inactive)
IC50 [5]: > 49.8 µM (inactive)
CC50 [6]: > 50 µM (active)
IC50 [7]: 12.5 µM (inactive)
IC50 [8]: > 66.2 µM (inactive)

Oc1c2nc3ccc(F)cc3c-2nc2n1CCS2
AC50 [9]: 4.72 µM (active)
AC50 [10]: 192 µM (active)
AC50 [11]: 37.3 µM (active)

CCOc1ccccc1/C=N/NC(=O)c1nnn(-c2nonc2N)c1CN1CCC(C)CC1
AC50 [12]: 65 µM (active)
AC50 [13]: < 0.016 µM (active)
AC50 [14]: 0.0392 µM (active)

Cc1ccc(NC(=O)c2ccc(OC3CSC3)cc2)cc1
IC50 [15]: > 99 µM (inactive)
IC50 [16]: > 99 µM (inactive)
IC50 [17]: > 99 µM (inactive)
IC50 [18]: > 99 µM (inactive)

COc1ccc(Oc2c(C(=O)O)cnn(Cc3cccc4ccccc34)c2=O)cc1
IC50 [19]: > 20 µM (inactive)
IC50 [20]: > 20 µM (inactive)

CN(C(=O)CSc1nc2ccccc2c(=O)[nH]1)C1CCCCC1
CC50 [21]: > 100 µM (active)
CC50 [22]: > 100 µM (active)
CC50 [23]: > 100 µM (active)
CC50 [24]: > 100 µM (active)
CC50 [25]: > 97.4 µM (active)
CC50 [26]: > 100 µM (active)

COc1ccc(-c2cc(=O)c3c(O)cc(O)cc3o2)cc1 [ACACETIN]
AC50 [27]: 1.26 µM (inconclusive)
Ki [28]: 1.26 µM (active)
Ki [29]: 0.631 µM (active)

— ChEMBL document CHEMBL1201862, “PubChem BioAssay data set” (2004)
